# According to US20100113530A1, “S1P LYASE INHIBITORS FOR THE TREATMENT OF CEREBRAL MALARIA” (priority 2008, published 2010):
# Tests used:
# P. berghei ANKA = assay: Cerebral malaria model: survival of infected mice; format: in vivo, C56B1/6 mice; conditions: first dose one day before infection, FIG. 2
# Description: (§1) FIGS. 1 and 2 show results of an experiment using three groups of 10 female C56B1/6 mice. The mice in all three groups were infected with 1 million parasites (P. berghei ANKA) i.p. in 500 μl of media. The first group was the control group. The S1P lyase inhibitor (E)-1-(4-((1R,2S,3R)-1,2,3,4-tetrahydroxybutyl)-1H-imidazol-2-yl)-ethanone oxime was administered i.p. (100 mg/kg) to the mice in the second group, and was administered by gavage (100 mg/kg) to the mice in the third group. The drug was administered daily, and was first administered one day before infection.
# (§2) Twenty four hours after the drug was first administered, tail vein blood was taken from the mice, and flow cytometry analysis was used to assess the levels of B and T cells, using antibodies to CD3, CD4, CD8 and CD19. The animals were monitored daily for body weight, hematocrit, and parasitaemia, and twice daily for survival.
# CD8+ T cells = assay: Cerebral malaria model: flow cytometry of tail vein blood for B and T cell levels; format: in vivo, C56B1/6 mice; conditions: first dose one day before infection, blood taken 24 h after first dose, FIG. 1
# Description: as §1, §2
smiles,measurement,setting,value
"C/C(=N\O)c1nc([C@@H](O)[C@H](O)[C@H](O)CO)c[nH]1 [(E)-1-(4-((1R,2S,3R)-1,2,3,4-tetrahydroxybutyl)-1H-imidazol-2-yl)-ethanone oxime]",survival as compared to control group,P. berghei ANKA; gavage 100 mg/kg daily,lived significantly longer
same,survival as compared to control group,P. berghei ANKA; i.p. 100 mg/kg daily,lived significantly longer
same,CD8+ T cells as compared to untreated control group,CD8+ T cells; gavage 100 mg/kg daily,decreased CD8+ T cells
same,CD8+ T cells as compared to untreated control group,CD8+ T cells; i.p. 100 mg/kg daily,decreased CD8+ T cells
